Reference: patent EP1743641A1, “Use of substituted pyrazoline compounds for the treatment of food disorders, including obesity or metabolic syndrome in patients with developed diabetes” (LABORATORIOS DEL DR. ESTEVE, S.A., priority 2005, dated 2007)

Assays:
[1] = system: cannabinoid receptors; test: Mouse tetrad model, agonistic effect; assay type: in vivo, Male NMRI mice; parameters: key to Agonistic effect D: Sedation: % of sedation = arithmetic mean score/3 × 100; conditions: 5 mg/kg i.v., mice
Text: (§1) Substances with affinity for cannabinoid receptors are known to produce a wide range of pharmacological effects. It is also known that intravenous administration of a substance with affinity for cannabinoid receptors in mice produces analgesia , hypothermia, sedation and catalepsy. Individually, none of these effects can be considered as proof that a tested substance has affinity for cannabinoid-receptors, since all of these effects are common for various classes of centrally active agents. However, substances, which show all of these effects, i.e. substances that are active in this so-called tetrad model are considered to have affinity for the cannabinoid receptors. It has further been shown that cannabinoid receptor antagonists are higly effective in blocking the effects of a cannabinoid agonist in the mouse tetrad model.
(§2) The tetrad model is described, for example, in the publication of A. C. Howlett et al, International Union of Pharmacology XXVII. Classification of Cannabinoid e cept σs, Pharmacol Rev 54, 161-202 , 2002 and David R. Compton et al., "In-vivo Characterization of a Specific Cannabinoid Receptor Antagonist (SR141716A) :Inhibition of Tetrahydrocannbinol- induced Responses and Apparent Agonist Activity", J. Pharmacol. Exp. Ther. 277, 2, 586-594, 1996. The corresponding parts of the description are hereby incorporated by reference.
(§3) Male NMRI mice with a weight of 20-30 g (Harlan, Barcelona, Spain) are used in all of the following experiments.
(§4) Before testing in the behavioral procedures given below, mice are acclimatized to the experimental setting. Pre-Treatment control values are determined for analgesia hot plate latency (in seconds), rectal temperature, sedation and catalepsy.
(§5) In order to determine the agonistic activty of the substance to be tested, the mice are injected intravenously with the substance to be tested or the vehicle alone. 15 minutes after injection, latency in hot plate analgesia is measured. Rectal temperature, sedation and catalepsy are measured 20 minutes after injection.
(§6) The hot plate analgesia is determined according to the method described in Woolfe D. et al. "The evaluation of analgesic action of pethidine hydrochloride (Demerol)", J. Pharmacol. Exp. Ther. 80, 300-307,1944. The respective description is hereby incorporated by reference and forms part of the present disclosure.
(§7) The mice are placed on a hot plate (Harvard Analgesimeter) at 55 ± 0.5 °C until they show a painful sensation by licking their paws or jumping and the time for these sensations to occur is recorded. This reading is considered the basal value (B). The maximum time limit the mice are allowed to remain on the hot plate in absence of any painful response is 40 seconds in order to prevent skin damage. This period is called the cut-off time (PC).
(§8) Fifteen minuts after the administration of the substance to be tested, the mice are again placed on the hot plate and the afore described procedure is repeated. This period is called the post-treatment reading (PT).
(§9) %MPEof Analgesia = (PT−B)/(PC−B) × 100 [formula]
(§10) Sedation and ataxia is determined according to the method described in Desmet L. K. C. et al. "Anticonvulsive properties of Cinarizine and Flunarizine in Rats and Mice", Arzneim. -Forsch. (Frug Res) 25, 9, 1975. The respective description is hereby incorporated by reference and forms part of the present disclosure.
(§11) The chosen scoring system is
%of sedation = arithmetic mean/3 × 100 [formula]
Hypothermia is determined according to the method described in David R. Compton et al. "In-vivo Characterization of a Specific Cannabinoid Receptor Antagonist (SR141716A) Inhibition of Tetrahydrocannbinol- induced Responses and Apparent Agonist Activity", J. Pharmacol Exp Ther. 277 , 2, 586-594, 1996. The respective description is hereby incorporated by reference and forms part of the present disclosure. […]

[2] = molecular target: T1, CB2-Receptor (Homo sapiens, UniProt P34972); test: In-vitro determination of affinity to CB2 receptor (radioligand [3H]-CP55940); assay type: binding
T1 construct: purchased Receptor Biology, Inc
T1 sequence (P34972 whole entry): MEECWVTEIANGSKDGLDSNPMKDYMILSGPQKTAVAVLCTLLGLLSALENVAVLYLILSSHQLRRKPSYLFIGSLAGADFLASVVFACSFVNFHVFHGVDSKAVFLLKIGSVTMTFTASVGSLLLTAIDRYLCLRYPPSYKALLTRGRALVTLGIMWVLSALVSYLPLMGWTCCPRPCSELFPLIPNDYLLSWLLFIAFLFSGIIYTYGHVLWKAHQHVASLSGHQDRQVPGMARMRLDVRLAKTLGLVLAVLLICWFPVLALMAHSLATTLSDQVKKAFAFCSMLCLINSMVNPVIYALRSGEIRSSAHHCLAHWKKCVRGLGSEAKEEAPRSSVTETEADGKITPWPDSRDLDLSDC
Method: (§12) The in-vitro determination of the affinity of the substituted pyrazoline compounds to CB1/CB2-Rezeptors is carried out as described in the publication of Ruth A. Ross, Heather C. Brockie et al., "Agonist-inverse agonist characterization at CB1 and CB2 cannabinoid receptors of L-759633, L759656 and AM630", British Journal of Pharmacology, 126, 665-672, (1999), whereby the transfected human CB1 and CB2 receptors of Receptor Biology, Inc. are used. The radioligand used for both receptors is [^3H]-CP55940. The respective parts of the description is hereby incorporated by reference and forms part of the present disclosure. The affinity of the inventive substituted pyrazoline compounds to CB1/CB2 receptors was determined as described above.

[3] = molecular target: T2, CB1-Receptor (Homo sapiens, UniProt P21554); test: In-vitro determination of affinity to CB1 receptor (radioligand [3H]-CP55940); assay type: binding
T2 construct: purchased Receptor Biology, Inc
T2 sequence (P21554 whole entry): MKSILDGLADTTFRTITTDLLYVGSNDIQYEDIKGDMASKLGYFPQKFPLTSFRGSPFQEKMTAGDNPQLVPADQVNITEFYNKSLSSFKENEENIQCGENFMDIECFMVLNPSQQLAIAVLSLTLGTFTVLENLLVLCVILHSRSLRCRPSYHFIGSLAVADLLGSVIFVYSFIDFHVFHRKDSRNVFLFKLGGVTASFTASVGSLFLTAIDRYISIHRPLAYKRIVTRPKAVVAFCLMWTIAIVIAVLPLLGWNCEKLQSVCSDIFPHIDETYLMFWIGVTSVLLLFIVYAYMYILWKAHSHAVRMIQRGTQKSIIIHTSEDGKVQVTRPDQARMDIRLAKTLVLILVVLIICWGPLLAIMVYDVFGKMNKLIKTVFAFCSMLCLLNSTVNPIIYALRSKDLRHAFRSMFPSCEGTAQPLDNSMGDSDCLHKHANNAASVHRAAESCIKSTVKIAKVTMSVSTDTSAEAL
Method: as §12, with “disclosure.” for “disclosure. The affinity of the inventive substituted pyrazoline compounds to CB1/CB2 receptors was determined as described above.”
The affinity of the inventive substituted pyrazoline compounds to CB1/CB2 receptors was determined as described above.

[4] = system: cannabinoid receptors; test: Mouse tetrad model, antagonistic effect against Win 55212-2; assay type: in vivo, Male NMRI mice; parameters: unit not given here; conditions: 5 mg/kg i.v. prior to Win 55212-2 in a dose of 1,25mg/kg i.v., mice
Text: as §1, §2, §3, §4, §5
In order to determine the antagonistic activity the identical procedure is used as for the determination of the agonistic effects, but with the difference that the substance to be evaluated for its antagonistic activity is injectected 5 minutes before the intravenous injection of 1.25 mg/kg Win-55,212 a known cannabinoid-receptor agonist.
as §6, §7, §8, §9, §10, §11
%of sedation = arithmetic mean/3 × 100 [formula] […]

Row | Compound | Agonistic effect A: Hot-Plate test [1] | Agonistic effect B: Hypothermia [1] | Agonistic effect C: Catalepsy [1] | Agonistic effect D: Sedation [1] | Ki [2] | Ki [3] | Antagonistic Effect A: Hot-Plate test [4] | Antagonistic Effect B: Hypothermia [4] | Antagonistic Effect C: Catalepsy [4] | Antagonistic Effect D: Sedation [4]
1 | O=C(NN1CCCCC1)C1=NN(c2ccc(Cl)cc2Cl)C(c2ccc(Cl)cc2)C1 (stereo not shown) [Example 1, N-piperidinyl-5-(4-chlorophenyl)-1-(2,4-dichlorophenyl)-4,5-dihydro-1H-pyrazole-3-carboxamide] | 0 | 0 | 0 | 0 | > 1000 nM | < 25 nM | 74 | 100 | 100 | 100
2 | O=C(C1=NN(c2ccc(Cl)cc2Cl)C(c2ccc(Cl)cc2)C1)N1CCCCC1 (stereo not shown) [Example 5, [5-(4-Chloro-phenyl)-1-(2,4-dichloro-phenyl)-4,5-dihydro-1H-pyrazol-3-yl]-piperidin-1-yl-methanone] | 0 | 50 | 0 | 0 | ~1000 nM | – | 50 | 40 | 20 | 20
